Reference: ChEMBL document CHEMBL1255407, “High diversity of extended-spectrum beta-lactamases in Escherichia coli isolates from Italian broiler flocks” (2010)

The compounds below were run on Escherichia coli (assay: Antimicrobial activity against Escherichia coli isolates producing extended-spectrum beta-lactamases bla(CTX-M-1), bla(CTX-M-32) and bla(SHV-12) isolated from Italian broiler flocks by agar dilution method).
Format: functional
CO/N=C(\C(=O)N[C@@H]1C(=O)N2C(C(=O)O)=C(COC(C)=O)CS[C@H]12)c1csc(N)n1 [CEFOTAXIME] gave an MIC of no less than 2 µg/mL. Compound O=C(O)c1cn(C2CC2)c2cc(N3CCNCC3)c(F)cc2c1=O [CIPROFLOXACIN] has an MIC of less than 0.03 µg/mL. For CO/N=C(\C(=O)N[C@@H]1C(=O)N2C(C(=O)O)=C(CSC(=O)c3ccco3)CS[C@H]12)c1csc(N)n1 [CEFTIOFUR], the MIC was no less than 8 µg/mL.

Each compound was assayed on Escherichia coli (assay: Antimicrobial activity against Escherichia coli isolates producing extended-spectrum beta-lactamases bla(CTX-M-1), bla(CTX-M-32) and bla(SHV-12) assessed as resistant isolates isolated from Italian broiler flocks by disk diffusion method).
With O=C(O)c1cn(C2CC2)c2cc(N3CCNCC3)c(F)cc2c1=O [CIPROFLOXACIN] the Activity was 44%. CN(C)[C@@H]1C(O)=C(C(N)=O)C(=O)[C@@]2(O)C(O)=C3C(=O)c4c(O)cccc4[C@@](C)(O)[C@H]3C[C@@H]12 [TETRACYCLINE] gave an Activity of 94%. Work on CCn1cc(C(=O)O)c(=O)c2ccc(C)nc21 [NALIDIXIC ACID] yielded an Activity of 83%.
